Values of other authors, collected in patent US20090022789A1 (Supernus Pharmaceuticals, Inc., priority 2007, published 2009).

Details: oral administration, IR form

- first-pass metabolism: negligible
Compound: Nc1nnc(-c2cccc(Cl)c2Cl)c(N)n1 [lamotrigine, 3,5-diamino-6-(2,3-dichlorophenyl)-as-triazine]
